Literature values, collected in patent publication US20060046998A1, “Method of treatment of gastroesophageal reflux disease and laryngopharyngeal reflux disease” (Fairfield Clinical Trials, LLC, priority 2004, published 2006).

Conditions: oral, when beginning a course of PPI therapy

## COc1ccc2nc([S@@+]([O-])Cc3ncc(C)c(OC)c3C)[nH]c2c1 [esomeprazole]
  time to obtain maximal symptomatic relief: four

## Cc1c(OCC(F)(F)F)ccnc1C[S+]([O-])c1nc2ccccc2[nH]1 (centres unmarked) [lansoprazole]
  time to obtain maximal symptomatic relief: five
